Assay results reported in publication PMC12227560, “Total synthesis of a sorrentanone ester library and evaluation of its antimicrobial potential” (Scientific Reports, 2025).
Converted amounts (≈) assume the structure as drawn.

What was measured:
[1] = tested on: various Streptococcus and Staphylococcus species; set-up: method as in PMID 37687129, PMID 7622440; details: cited from earlier work
[2] = tested on: human lung fibroblast cell line (MRC-5); experiment: Cytotoxicity evaluation by MTT assay; format: cell-based
Description: (§1) 3. Bioactivity and Toxicity Assays
(§2) Antimicrobial assay: According to the standard broth micro-dilution assays, following the Standards of European Committee on Antimicrobial Susceptibility Testing (v 7.3.1: Method for the determination of broth dilution minimum inhibitory concentrations of antifungal agents for yeasts) for Candida spp., and according to the standard broth micro-dilution assays, recommended by the National Committee for Clinical Laboratory Standards (M07-A8) for bacteria MIC values of compounds were determinate. Compounds were dissolved in DMSO at a concentration of 50 mg/mL, and the highest tested concentration was 250 µg/mL. The inoculums were 1x10^5 colony forming units (CFU/mL), for Candida species, and bacteria species, 5x10^5 colony forming units (CFU/mL). The MIC value was recorded as the lowest concentration that inhibited the growth after 24 h at 37 °C. Additionally, 5 µL from each well of 96 well plates was transferred to Luria Agar (LA) plates for bacteria and Sabouraud agar (SAB) plates for Candida spp. and incubated for an additional 24 h at 37 °C, to determine MBC (Minimum bactericidal/fungicidal concentration) values. In Table 1. Are labeled compounds showing a difference in MBC and previously determined MIC values.
Cytotoxicity evaluation: Antiproliferative activity was tested by MTT assay (3-(4,5-dimethylthiazol-2-yl)-2,5-diphenyltetrazoliumbromide) on a human lung fibroblast cell line (MRC-5; ATCC collection). Pre-grown (24 h) cell monolayers (1x10^4 cells per well) in RPMI 1640 medium supplemented with 100 μg/mL streptomycin, 100 U/mL penicillin, and 10% (v/v) FBS (all from Sigma, Munich, Germany) containing the tested compounds at concentrations ranging from 5 to 20 μg/mL were incubated in a humidified atmosphere of 95% air and 5% CO2 at 37 °C for 48 h. The cell viability (extent of MTT reduction) was measured spectrophotometrically at 540 nm using the Epoch 2000 multiplate reader, and the cell survival was expressed as a percentage of the control (untreated cells). Cytotoxicity was expressed as the concentration of the compound inhibiting cell growth by 50% (IC 50). […]

Enterococcus faecalis = tested on: Enterococcus faecalis; set-up: method as in PMID 37687129, PMID 7622440; details: cited from earlier work
Bacillus subtilis = tested on: Bacillus subtilis; set-up: method as in PMID 37687129, PMID 7622440; details: cited from earlier work
[3] = tested on: C. albicans ATCC10231 biofilm formation; experiment: Anti-biofilm activity assessment (crystal violet); format: cell-based, Candida albicans; details: for inhibition of biofilm formation (in words): data not shown
Experimental: Anti-biofilm activity assessment: The effect of compounds on biofilms formation was determined on C. albicans ATCC 10231 strain. Anti -biofilm assays were conducted using a previously reported methodology with small modifica tions.9 The assay was carried out in 96 - well round-bottom polystyrene microtiter plates. Cells wer e harvested from overnight grown cultures, washed twice with sterile phosphate -buffered saline (PBS; Sigma -Aldrich, Munich, Germany), and resuspended in RPMI 1640 medium (Sigma -Aldrich) containing 2% glucose (w/v) at a concentration of 1 × 10^5 CFU/mL. C. albicans suspension was incubated with 0.5 MIC, 1 MIC, and 2 MIC compounds concentration in 200.0 μL final volume per well for 48 h at 37 °C to allow biofilm formation. Biofilm growth was analyzed by crystal violet (CV) staining of adherent cells and the a bsorbance at 590.0 nm was read on a Tecan Infinite 200 Pro multiplate reader (Tecan Group Ltd., Männedorf, Switzerland). […]

[4] = tested on: ergosterol in C. albicans; experiment: Ergosterol biosynthesis assay; format: cell-based, Candida albicans; details: 0.5 MIC; Candida cells; UV profile
Experimental: Ergosterol biosynthesis assay: Ergosterol levels were measured according to the published procedure with some minor modifications. 10 Briefly, a sing le C. albicans colony from an overnight Sabouraud dextrose agar plate was used to inoculate 50 ml of Sabouraud dextrose broth containing 0.5 MIC concentrated compounds. Incubation was performed for 18 h at 37 °C on the rotary shaker at 180 rpm. Cells were harvested by centrifugation at 3000 rpm for 5 min and washed once with sterile distilled water. The net wet weight of the cell pellet was determined. Three milliliters of 25% alcoholic potassium hydroxide solution (25 g of KOH and 35 ml of sterile distill ed water, brought to 100 ml with 100% ethanol), was added to each pellet and vortex mixed for 1 min and incubated in an 85 °C water bath for 1 h. Tubes were cooled to room temperature and extraction of sterols was done with the addition of a mixture of 1 ml of sterile distilled water and 3 ml of n-heptane followed by vigorous vortex mixing for 3 min. The heptane layer was used for spectrophotometrically measuring ergosterol concentrations by scanning absorbance between 240 nm and 300 nm using Ultrospec 3300pro 573 (Amer sham Biosciences, Amersham, UK).

E. coli NCTC9001 = experiment: Antimicrobial broth micro-dilution assay (MIC); format: cell-based; details: Escherichia coli; E. coli NCTC9001; 24 h at 37 °C; highest tested concentration 250 µg/mL; read-out: Minimum inhibitory concentration (MIC)
Description: as §1
as §2, with “MIC values. […]” for “MIC values.”

P. aeruginosa ATCC27853 = experiment: Antimicrobial broth micro-dilution assay (MIC); format: cell-based; details: Pseudomonas aeruginosa; P. aeruginosa ATCC27853; 24 h at 37 °C; highest tested concentration 250 µg/mL; read-out: Minimum inhibitory concentration (MIC)
Description: as §1
as §2, with “MIC values. […]” for “MIC values.”

B. subtilis ATCC6633 = experiment: Antimicrobial broth micro-dilution assay (MIC); format: cell-based; details: Bacillus subtilis; B. subtilis ATCC6633; 24 h at 37 °C; highest tested concentration 250 µg/mL; read-out: Minimum inhibitory concentration (MIC)
Description: as §1
as §2, with “MIC values. […]” for “MIC values.”

S. aureus MRSA = experiment: Antimicrobial broth micro-dilution assay (MIC); format: cell-based; details: Staphylococcus aureus; S. aureus MRSA; 24 h at 37 °C; highest tested concentration 250 µg/mL; read-out: Minimum inhibitory concentration (MIC)
Description: as §1
as §2, with “MIC values. […]” for “MIC values.”

C. albicans ATCC10231 = experiment: Antimicrobial broth micro-dilution assay (MIC); format: cell-based; details: Candida albicans; C. albicans ATCC10231; 24 h at 37 °C; highest tested concentration 250 µg/mL; read-out: Minimum inhibitory concentration (MIC)
Description: as §1
as §2, with “MIC values. […]” for “MIC values.”

S. aureus ATCC25923 = experiment: Antimicrobial broth micro-dilution assay (MIC); format: cell-based; details: Staphylococcus aureus; S. aureus ATCC25923; 24 h at 37 °C; highest tested concentration 250 µg/mL; read-out: Minimum inhibitory concentration (MIC)
Description: as §1
as §2, with “MIC values. […]” for “MIC values.”

[5] = tested on: C. albicans ATCC 10231 hyphae formation; experiment: Filamentation test on Candida (solid spider medium); format: cell-based, Candida albicans; details: for relative activity in inhibition of filament formation (in words): compared with 36 and 41, sub-inhibitory concentrations
Experimental: Filamentation test on Candida: Using solid composition, the effect of sorrentano ne […]
albicans cells from an overnight culture grown in Sabouraud dextrose broth medium at 37 °C with or without compounds were centrifuged for 10 minutes at maximum speed, and the pellet was washed several times with sterile PBS (phosphate -buffered saline). After it, the pellet was resuspended in 200 µL PBS, and 2 µL of cell suspension was poured over solid composition and incubated at 37 °C for 120 h. Morphological changes of C. albicans ATCC

[6] = tested on: two S. aureus strains and B. subtilis ATCC6633; experiment: Antimicrobial assay, Gram-positive bacteria; format: cell-based; details: from MIC values
Description: as §1
as §2, with “MIC values. […]” for “MIC values.”

SMILES: C/C=C/C=C/C(=O)C1=C(C)C(=O)C(O)=C(C)C1=O [compound 7, sorrentanone]
- IC50 [1]: 16.0 to 64.0 µg/mL
- in vitro toxicity ranking (in words) ([2]; MRC-5 cells): highest toxicity
- selectivity index (SI) ([2]; cytotoxicity versus antibiotic activity, calculation not described): 1.12
- IC50 (Enterococcus faecalis): 128 µg/mL (≈ 520 µM)
- IC50 (Bacillus subtilis): 32.0 µg/mL (≈ 130 µM)
- inhibition of biofilm formation (in words) [3]: displayed inhibition of biofilm formation
- inhibition of biofilm formation ([3]; sub-inhibitory concentration (0.5 times MIC), 48 h): 60–77%
- reduction of total amount of ergosterol (in words) [4]: most potent in reducing the total amount of ergosterol
- MIC (E. coli NCTC9001): > 250 µg/mL
- MIC (P. aeruginosa ATCC27853): > 250 µg/mL
- MIC (B. subtilis ATCC6633): 62.5 µg/mL (≈ 254 µM)
- MIC (S. aureus MRSA): 31.2 µg/mL (≈ 127 µM)
- MIC (C. albicans ATCC10231): 125 µg/mL (≈ 508 µM)
- MIC (S. aureus ATCC25923): 62.5 µg/mL (≈ 254 µM)
- filamentation (in words) ([5]; 0.5 times MIC, 120 h, C. albicans ATCC10231): already show filamentation after 120 h
- relative activity in inhibition of filament formation (in words) [5]: less active

SMILES: C=CCCCOC(=O)C1=C(C)C(=O)C(O)=C(C)C1=O [compound 39]
- inhibition of biofilm formation (in words) [3]: displayed inhibition of biofilm formation
- improvement of antibacterial activity compared to sorrentanone (7) [6]: two- to four-fold improved activity
- reduction of total amount of ergosterol (in words) [4]: most potent in reducing the total amount of ergosterol
- MIC (E. coli NCTC9001): > 250 µg/mL
- MIC (P. aeruginosa ATCC27853): > 250 µg/mL
- MIC (B. subtilis ATCC6633): 15.6 µg/mL (≈ 59 µM)
- MIC (S. aureus MRSA): 62.5 µg/mL (≈ 236 µM)
- MIC (C. albicans ATCC10231): 62.5 µg/mL (≈ 236 µM)
- MIC (S. aureus ATCC25923): 62.5 µg/mL (≈ 236 µM)
- relative activity in inhibition of filament formation (in words) [5]: less active
